Columns and labels:
[1] = Stability versus concentration, vial size and headspace gas at +40° C. (Table 6); assay type: physicochemical
Protocol: For the 10 ml vial size, the fill volume was 10.7 ml; and for the 20 ml vial size, the fill volume was 20.7 ml.

[2] = Stability of 100 mg/ml aqueous solution with added factors (chelating agent, antioxidant, oxygen removal, pH); assay type: physicochemical
Protocol: The effects of several added factors were investigated in experiments designed using a multivariate technique. An aqueous solution of α-(2,4-disulfophenyl)-N-tert-butylnitrone disodium salt (100 mg/ml) containing less than 0.3% 2,4-disulphobenzaldehyde disodium salt (II) was placed in sealed 10 ml glass vials with a fill volume of 10 ml. The concentrations of the degradation products and particularly of 2,4-disulphobenzaldehyde disodium salt (II) were measured by a chromatographic method after accelerated storage conditions at +40° C. and 75% relative humidity for two months.
Values are mean±standard deviation. n indicates the number of independent experiments. A t-test was performed to evaluate the significance of the different factors.

[3] = Stability of buffered and unbuffered solutions and concentrates at room temperature; assay type: physicochemical
Description: In a further study the stability of both buffered (sodium hydrogen carbonate) and unbuffered aqueous solutions and concentrates of α-(2,4-disulfophenyl)-N-tert-butylnitrone disodium salt stored at room temperature were compared. […] The buffered solutions show no apparent concentration dependent decomposition due to the short storage time and moderate storage temperature.

[4] = Effect of chelator resin Chelex-100 on stability of concentrated aqueous solution; assay type: physicochemical; conditions: 100 mg/ml, 5.3 mM phosphate, pH 8.0
Protocol: A concentrated aqueous solution of α-(2,4-disulfophenyl)-N-tert-butylnitrone disodium salt (100 mg/ml) and disodium hydrogen phosphate (5.3 mM) at pH 8.0 was passed overnight through a column of the chelator resin, Chelex-100®. The resulting solution was placed in portions (8 ml) into 10 ml glass vials which were then sealed. The starting level of the aldehyde (II) was 0.20%. After two months at +40° C. and 75% relative humidity the concentration of the aldehyde (II) had increased to 2.3%. In a control experiment where the treatment with the resin was omitted, the level of the aldehyde (II) increased to 3.0%.

S. aureus = test: Antimicrobial efficacy (European Pharmacopoeia 2000, Chapter 5.1.3); assay type: cell-based
Protocol: (§1) The antimicrobial efficacy was tested for three different solutions: […] iii) a carbonate buffer control. The tests were performed according to European Pharmacopoeia 2000, Chapter 5.1.3, pages 259 to 260. Seven 10 ml vials were inoculated, one per test organism. During the tests, the vials were stored at controlled room temperature and protected from light. At different time intervals, samples were withdrawn and after appropriate dilutions the numbers of viable microorganisms (colony forming units per ml, CFU/ml) were determined using standard plate count procedures.

E. coli = test: as above; assay type: cell-based
Protocol: as §1

[5] = Shelf life of the preferred concentrate formulation; assay type: physicochemical; conditions: 400 mg/ml, 5 to 50 mM disodium hydrogen phosphate, pH 8.5, nitrogen purged, sealed 20 ml vials
[6] = 7.5 mg/ml buffered (sodium hydrogen carbonate), 0 hours
[7] = 7.5 mg/ml buffered (sodium hydrogen carbonate), 48 hours
[8] = 75 mg/ml buffered (sodium hydrogen carbonate), 0 hours
[9] = 75 mg/ml buffered (sodium hydrogen carbonate), 48 hours
[10] = 150 mg/ml buffered (sodium hydrogen carbonate), 0 hours
[11] = 150 mg/ml buffered (sodium hydrogen carbonate), 48 hours

Amount of Aldehyde (II) ([1]; 50 mg/ml, 10 ml vial, N2 in headspace, 2 months at +40° C.): 1.4 w/w % | Amount of Aldehyde (II) ([1]; 50 mg/ml, 10 ml vial, N2 in headspace, 3 months at +40° C.): 1.5 w/w % | Amount of Aldehyde (II) ([1]; 50 mg/ml, 10 ml vial, N2 in headspace, 6 months at +40° C.): 1.7 w/w % | Amount of Aldehyde (II) ([1]; 50 mg/ml, 10 ml vial, N2 in headspace, initial): 0.2 w/w % | Amount of Aldehyde (II) ([1]; 50 mg/ml, 10 ml vial, air in headspace, 2 months at +40° C.): 2.8 w/w % | Amount of Aldehyde (II) ([1]; 50 mg/ml, 10 ml vial, air in headspace, 3 months at +40° C.): 3.3 w/w % | Amount of Aldehyde (II) ([1]; 50 mg/ml, 10 ml vial, air in headspace, 6 months at +40° C.): 3.5 w/w % | Amount of Aldehyde (II) ([1]; 50 mg/ml, 10 ml vial, air in headspace, initial): 0.2 w/w % | Amount of Aldehyde (II) ([1]; 100 mg/ml, 10 ml vial, air in headspace, 2 months at +40° C.): 1.8 w/w % | Amount of Aldehyde (II) ([1]; 100 mg/ml, 10 ml vial, air in headspace, initial): 0.2 w/w % | Amount of Aldehyde (II) ([1]; 400 mg/ml, 10 ml vial, N2 in headspace, 2 months at +40° C.): 0.5 w/w % | Amount of Aldehyde (II) ([1]; 400 mg/ml, 10 ml vial, N2 in headspace, 3 months at +40° C.): 0.6 w/w % | Amount of Aldehyde (II) ([1]; 400 mg/ml, 10 ml vial, N2 in headspace, initial): 0.3 w/w % | Amount of Aldehyde (II) ([1]; 400 mg/ml, 10 ml vial, air in headspace, 2 months at +40° C.): 0.8 w/w % | Amount of Aldehyde (II) ([1]; 400 mg/ml, 10 ml vial, air in headspace, 3 months at +40° C.): 0.9 w/w % | Amount of Aldehyde (II) ([1]; 400 mg/ml, 10 ml vial, air in headspace, initial): 0.3 w/w % | Amount of Aldehyde (II) ([1]; 400 mg/ml, 20 ml vial, N2 in headspace, 2 months at +40° C.): 0.5 w/w % | Amount of Aldehyde (II) ([1]; 400 mg/ml, 20 ml vial, N2 in headspace, 3 months at +40° C.): 0.5 w/w % | Amount of Aldehyde (II) ([1]; 400 mg/ml, 20 ml vial, N2 in headspace, initial): 0.3 w/w % | Amount of Aldehyde (II) ([1]; 400 mg/ml, 20 ml vial, air in headspace, 2 months at +40° C.): 0.7 w/w % | Amount of Aldehyde (II) ([1]; 400 mg/ml, 20 ml vial, air in headspace, 3 months at +40° C.): 0.8 w/w % | Amount of Aldehyde (II) ([1]; 400 mg/ml, 20 ml vial, air in headspace, initial): 0.3 w/w % | Initial content of 2,4-disulphobenzaldehyde disodium salt (II) ([2]; 100 mg/ml aqueous solution, before storage): less than 0.3% | Final Amount of Aldehyde (II) ([2]; 100 mg/ml, added EDTA, pH 7.0 to 8.8, 2 months +40° C./75% RH): 2.27 ± 0.12 area % | Final Amount of Aldehyde (II) ([2]; 100 mg/ml, added ascorbate, pH 7.0 to 7.3, 2 months +40° C./75% RH): 1.32 ± 0.11 (p < 0.001) area % | Final Amount of Aldehyde (II) ([2]; 100 mg/ml, added factor none, pH 7.0 to 8.2, 2 months +40° C./75% RH): 2.20 ± 0.11 area % | Final Amount of Aldehyde (II) ([2]; 100 mg/ml, nitrogen purge, pH 7.0 to 8.6, 2 months +40° C./75% RH): 1.34 ± 0.18 (p < 0.001) area % | Effect of pH on the degree of decomposition ([2]; pH 7 to 9, 100 mg/ml, 2 months +40° C./75% RH): no significant effect | Amount of Aldehyde (II) [3, 6]: 0.6 Area % | pH [3, 6]: 8.1 | Amount of Aldehyde (II) [3, 7]: 0.7 Area % | pH [3, 7]: 8.7 | Amount of Aldehyde (II) ([3]; 7.5 mg/ml unbuffered, 0 hours): 1.0 Area % | pH ([3]; 7.5 mg/ml unbuffered, 0 hours): 5.8 | Amount of Aldehyde (II) ([3]; 7.5 mg/ml unbuffered, 48 hours): 2.4 Area % | pH ([3]; 7.5 mg/ml unbuffered, 48 hours): 6.3 | Amount of Aldehyde (II) [3, 8]: 0.6 Area % | pH [3, 8]: 8.0 | Amount of Aldehyde (II) [3, 9]: 0.7 Area % | pH [3, 9]: 8.1 | Amount of Aldehyde (II) ([3]; 75 mg/ml unbuffered, 0 hours): 1.1 Area % | pH ([3]; 75 mg/ml unbuffered, 0 hours): 6.1 | Amount of Aldehyde (II) ([3]; 75 mg/ml unbuffered, 48 hours): 1.9 Area % | pH ([3]; 75 mg/ml unbuffered, 48 hours): 6.7 | Amount of Aldehyde (II) [3, 10]: 0.6 Area % | pH [3, 10]: 7.9 | Amount of Aldehyde (II) [3, 11]: 0.7 Area % | pH [3, 11]: 7.8 | Amount of Aldehyde (II) ([3]; 150 mg/ml unbuffered, 0 hours): 1.0 Area % | pH ([3]; 150 mg/ml unbuffered, 0 hours): 6.1 | Amount of Aldehyde (II) ([3]; 150 mg/ml unbuffered, 48 hours): 1.7 Area % | pH ([3]; 150 mg/ml unbuffered, 48 hours): 6.7 | Concentration of the aldehyde (II) ([4]; Chelex-100 treated, 2 months +40° C./75% RH): 2.3% | Starting level of the aldehyde (II) ([4]; Chelex-100 treated, start): 0.20% | Level of the aldehyde (II) ([4]; resin treatment omitted, 2 months +40° C./75% RH): 3.0% | Remains in useable condition ([5]; stored at room temperature): at least 6 months | Shelf life ([5]; stored refrigerated (approximately 2 to 8° C.)): at least 24 months
Structure (SMILES): CC(C)(C)[N+]([O-])=Cc1ccc(S(=O)(=O)[O-])cc1S(=O)(=O)[O-].[Na+].[Na+] [α-(2,4-disulfophenyl)-N-tert-butylnitrone disodium salt]
Number of CFUs per ml - Time after Inoculation (S. aureus; 10 mg/ml, 6 h): 4.5 × 10^5 CFUs per ml | Number of CFUs per ml - Time after Inoculation (S. aureus; 10 mg/ml, 24 h): 4.5 × 10^3 CFUs per ml | Number of CFUs per ml - Time after Inoculation (S. aureus; 10 mg/ml, 48 h): ≦10 CFUs per ml | Number of CFUs per ml - Time after Inoculation (S. aureus; 10 mg/ml, 7 days): <1 CFUs per ml | Number of CFUs per ml - Time after Inoculation (S. aureus; 10 mg/ml, 14 days): <1 CFUs per ml | Number of CFUs per ml - Time after Inoculation (S. aureus; 10 mg/ml, 21 days): <1 CFUs per ml | Number of CFUs per ml - Time after Inoculation (S. aureus; 10 mg/ml, 28 days): <1 CFUs per ml | Number of CFUs per ml - Time after Inoculation (S. aureus; 10 mg/ml, <1 min): 2.0 × 10^6 CFUs per ml | Number of CFUs per ml - Time after Inoculation (S. aureus; 400 mg/ml, 6 h): 6.7 × 10^5 CFUs per ml | Number of CFUs per ml - Time after Inoculation (S. aureus; 400 mg/ml, 24 h): 8.7 × 10^2 CFUs per ml | Number of CFUs per ml - Time after Inoculation (S. aureus; 400 mg/ml, 48 h): 3.8 × 10^2 CFUs per ml | Number of CFUs per ml - Time after Inoculation (S. aureus; 400 mg/ml, 7 days): <1 CFUs per ml | Number of CFUs per ml - Time after Inoculation (S. aureus; 400 mg/ml, 14 days): <1 CFUs per ml | Number of CFUs per ml - Time after Inoculation (S. aureus; 400 mg/ml, 21 days): <1 CFUs per ml | Number of CFUs per ml - Time after Inoculation (S. aureus; 400 mg/ml, 28 days): <1 CFUs per ml | Number of CFUs per ml - Time after Inoculation (S. aureus; 400 mg/ml, <1 min): 3.3 × 10^6 CFUs per ml | Number of CFUs per ml - Time after Inoculation (E. coli; 10 mg/ml, 6 h): 9.0 × 10^5 CFUs per ml | Number of CFUs per ml - Time after Inoculation (E. coli; 10 mg/ml, 24 h): 5.0 × 10^4 CFUs per ml | Number of CFUs per ml - Time after Inoculation (E. coli; 10 mg/ml, 48 h): ≦10 CFUs per ml | Number of CFUs per ml - Time after Inoculation (E. coli; 10 mg/ml, 7 days): <1 CFUs per ml | Number of CFUs per ml - Time after Inoculation (E. coli; 10 mg/ml, 14 days): <1 CFUs per ml | Number of CFUs per ml - Time after Inoculation (E. coli; 10 mg/ml, 21 days): <1 CFUs per ml | Number of CFUs per ml - Time after Inoculation (E. coli; 10 mg/ml, 28 days): <1 CFUs per ml | Number of CFUs per ml - Time after Inoculation (E. coli; 10 mg/ml, <1 min): 1.5 × 10^6 CFUs per ml | Number of CFUs per ml - Time after Inoculation (E. coli; 400 mg/ml, 6 h): 4.1 × 10^4 CFUs per ml | Number of CFUs per ml - Time after Inoculation (E. coli; 400 mg/ml, 24 h): <1 CFUs per ml | Number of CFUs per ml - Time after Inoculation (E. coli; 400 mg/ml, 48 h): <1 CFUs per ml | Number of CFUs per ml - Time after Inoculation (E. coli; 400 mg/ml, 7 days): <1 CFUs per ml | Number of CFUs per ml - Time after Inoculation (E. coli; 400 mg/ml, 14 days): <1 CFUs per ml | Number of CFUs per ml - Time after Inoculation (E. coli; 400 mg/ml, 21 days): <1 CFUs per ml | Number of CFUs per ml - Time after Inoculation (E. coli; 400 mg/ml, 28 days): <1 CFUs per ml | Number of CFUs per ml - Time after Inoculation (E. coli; 400 mg/ml, <1 min): 3.8 × 10^5 CFUs per ml

From patent publication US20030181527A1, “Novel formulations of alpha-2,4-disulfophenyl-n-tert-butylnitrone” (priority 2000, published 2003)
